Experimental data from patent US20230279020A9, “CARM1 INHIBITORS AND USES THEREOF” (Epizyme, Inc., priority 2013, published 2023).

Target: Human CARM1 (PRMT4) (Homo sapiens (Human), UniProt Q86X55)
Experiment: CARM1 enzyme assay on peptide substrate (3H-SAM Flashplate)
Settings: Biochemical potencies, classification codes; read-out: Biochem IC50

Chain of Human CARM1 (PRMT4) (Q86X55 other isoform, or with tags, fused parts or gaps isoform Q86X55-1): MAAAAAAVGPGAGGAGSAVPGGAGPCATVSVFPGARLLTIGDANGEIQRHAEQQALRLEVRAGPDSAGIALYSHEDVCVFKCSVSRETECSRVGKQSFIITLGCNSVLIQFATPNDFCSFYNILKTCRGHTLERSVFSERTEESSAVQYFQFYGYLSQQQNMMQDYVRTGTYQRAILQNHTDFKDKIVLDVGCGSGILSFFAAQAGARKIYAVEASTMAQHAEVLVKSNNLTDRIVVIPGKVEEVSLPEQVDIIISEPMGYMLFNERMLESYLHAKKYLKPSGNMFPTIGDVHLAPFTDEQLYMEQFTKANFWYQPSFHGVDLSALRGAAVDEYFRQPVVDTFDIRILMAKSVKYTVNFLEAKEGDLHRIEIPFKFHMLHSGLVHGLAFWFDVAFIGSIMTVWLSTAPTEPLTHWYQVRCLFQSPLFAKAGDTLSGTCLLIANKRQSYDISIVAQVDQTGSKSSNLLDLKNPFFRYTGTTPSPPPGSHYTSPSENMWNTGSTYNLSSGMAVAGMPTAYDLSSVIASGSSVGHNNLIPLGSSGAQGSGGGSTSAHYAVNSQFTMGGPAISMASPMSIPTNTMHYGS

| IC50 | Structure (SMILES) |
| --- | --- |
| < 100 nM | CNCC(O)COc1cccc(-c2nc(N[C@@H]3CCOC3)c(C)c(N3Cc4ccncc4C3)n2)c1 (stereo partly shown) [Example 427-1a] |
| < 100 nM | CNCC(O)COc1cccc(-c2nc(N[C@@H]3CCOC3)c(C)c(N3CCC4(CCNCC4)CC3)n2)c1 (stereo partly shown) [Example 429-1a] |
| < 100 nM | CNCC(O)COc1cccc(-c2nc(N[C@@H]3CCOC3)c(C)c(N3CCN(S(C)(=O)=O)CC3)n2)c1 (stereo partly shown) [Example 434-1a] |
| < 100 nM | CNCC(O)COc1cccc(-c2nc(N[C@@H]3CCOC3)c(C)c(N3CCN(C)C(=O)C3)n2)c1 (stereo partly shown) [Example 435-1a] |
| < 100 nM | CNCC(O)COc1cccc(-c2nc(N[C@@H]3CCOC3)c(C)c(N3CCN(C4CC4)CC3)n2)c1 (stereo partly shown) [Example 436-1a] |
| < 100 nM | CNCC(O)COc1cccc(-c2nc(N[C@@H]3CCOC3)c(C)c(N3CC[C@@H](O)C3)n2)c1 (stereo partly shown) [Example 437-1a] |
| < 100 nM | CNCC(O)COc1cccc(-c2nc(N[C@@H]3CCOC3)c(C)c(N3CCN(C(C)=O)C(C)(C)C3)n2)c1 (stereo partly shown) [Example 439-1a] |
| < 100 nM | CNCC(O)COc1cccc(-c2nc(N[C@@H]3CCOC3)c(C)c(N3C[C@H]4CNC[C@H]4C3)n2)c1 (stereo partly shown) [Example 440-1a] |
| < 100 nM | CNCC(O)COc1cccc(-c2nc(N[C@@H]3CCOC3)c(C)c(N3CCC(S(C)(=O)=O)CC3)n2)c1 (stereo partly shown) [Example 441-1a] |
| < 100 nM | CNCC(O)COc1cccc(-c2nc(NC3CCOC3)c(C)c(N3CC(N)CC(Cl)C3)n2)c1 (stereo not shown) [Example 442-1a] |
| < 100 nM | CNCC(O)COc1cccc(-c2nc(N[C@@H]3CCOC3)c(C)c(N3C[C@H]4C[C@@H]3CN4C)n2)c1 (stereo partly shown) [Example 443-1a] |
| < 100 nM | CNCC(O)COc1cccc(-c2nc(NC3CCOC3)c(C)c(N3CCN(CCF)CC3)n2)c1 (stereo not shown) [Example 446-1a] |
| < 100 nM | CNCC(O)COc1cccc(-c2nc(NC3CCOC3)c(C)c(N3CCN(C(=O)OC)C(C)(C)C3)n2)c1 (stereo not shown) [Example 447-1a] |
| < 100 nM | CCS(=O)(=O)N1CCN(c2nc(-c3cccc(OCC(O)CNC)c3)nc(NC3CCOC3)c2C)CC1(C)C (stereo not shown) [Example 448-1a] |
| < 100 nM | CNCC(O)COc1cccc(-c2nc(NC3CCOC3)c(C)c(N3CCN(CC(F)(F)F)CC3)n2)c1 (stereo not shown) [Example 449-1a] |
| < 100 nM | CNCC(O)COc1cccc(-c2nc(NC3CCOC3)c(C)c(N3CCN4C(=O)OC[C@@H]4C3)n2)c1 (stereo partly shown) [Example 454-1a] |
| < 100 nM | CNCC(O)COc1cccc(-c2nc(NC3CCOC3)c(C)c(N3CCN(C)C(C)(C)C3)n2)c1 (stereo not shown) [Example 455-1a] |
| < 100 nM | CCOC(=O)N1CCN(c2nc(-c3cccc(OCC(O)CNC)c3)nc(N[C@@H]3CCOC3)c2C)CC1 (stereo partly shown) [Example 456-1a] |

| IC50 | Structure (SMILES) |
| --- | --- |
| < 100 nM | CNCC(O)COc1cccc(-c2nc(NC3CCOC3)c(C)c(N3CCN(CC(F)F)C(C)(C)C3)n2)c1 (stereo not shown) [Example 457-1a] |
| < 100 nM | CNCC(O)COc1cccc(-c2nc(N[C@@H]3CCOC3)c(C)c(N3CCN(CC(F)F)CC3)n2)c1 (stereo partly shown) [Example 458-1a] |
| < 100 nM | CNCC(O)COc1cccc(-c2nc(N[C@@H]3CCOC3)c(C)c(N3CCC(c4cccnc4)C3)n2)c1 (stereo partly shown) [Example 461-1a] |
| < 100 nM | CNCC(O)COc1cccc(-c2nc(N[C@@H]3CCOC3)c(C)c(N3CCC4(CCOCC4)C3)n2)c1 (stereo partly shown) [Example 462-1a] |
| < 100 nM | CNCC(O)COc1cccc(-c2nc(N[C@@H]3CCOC3)c(C)c(N3CCN(C)[C@H](C)C3)n2)c1 (stereo partly shown) [Example 463-1a] |
| < 100 nM | CCS(=O)(=O)N1CCN(c2nc(-c3cccc(OCC(O)CNC)c3)nc(N[C@@H]3CCOC3)c2C)CC1 (stereo partly shown) [Example 464-1a] |
| < 100 nM | CNCC(O)COc1cccc(-c2nc(N[C@@H]3CCOC3)c(C)c(N3Cc4nc(C)sc4C3)n2)c1 (stereo partly shown) [Example 465-1a] |
| < 100 nM | CNCC(O)COc1cccc(-c2nc(N[C@@H]3CCOC3)c(C)c(N3CCN(C4CC4)[C@H](C)C3)n2)c1 (stereo partly shown) [Example 466-1a] |
| < 100 nM | CNCC(O)COc1cccc(-c2nc(N[C@@H]3CCOC3)c(C)c(N3CC[C@@H](c4cccnc4)C3)n2)c1 (stereo partly shown) [Example 467-1a] |
| < 100 nM | CNCC(O)COc1cccc(-c2nc(N[C@@H]3CCOC3)c(C)c(N3CCC(n4nc(C)cc4C)C3)n2)c1 (stereo partly shown) [Example 468-1a] |
| < 100 nM | CNCC(O)COc1cccc(-c2nc(N[C@@H]3CCOC3)c(C)c(N3CCCC4(CN(CC(F)F)C4)C3)n2)c1 (stereo partly shown) [Example 469-1a] |
| < 100 nM | CCOC(=O)N1CCN(c2nc(-c3cccc(OCC(O)CNC)c3)nc(N[C@@H]3CCOC3)c2C)C[C@H]1C (stereo partly shown) [Example 470-1a] |
| < 100 nM | CNCC(O)COc1cccc(-c2nc(N[C@@H]3CCOC3)c(C)c(N3CCN(CC(F)F)[C@H](C)C3)n2)c1 (stereo partly shown) [Example 471-1a] |
| < 100 nM | CNCC(O)COc1cccc(-c2nc(N[C@@H]3CCOC3)c(C)c(N3CCC4(CN(CC(F)F)C4)C3)n2)c1 (stereo partly shown) [Example 475-1a] |
| < 100 nM | CNCC(O)COc1cccc(-c2nc(-c3cnc4c(C(=O)OC)cnn4c3)cc(N(C)C3CCOCC3)n2)c1 (stereo not shown) [Example 482-1a] |
| < 100 nM | CNCC(O)COc1cccc(-c2nc(-c3cn(S(C)(=O)=O)c4ncncc34)cc(N(C)C3CCOCC3)n2)c1 (stereo not shown) [Example 483-1a] |
| < 100 nM | CNCC(O)COc1cccc(-c2nc(-c3cn(C)c4ncncc34)cc(N(C)C3CCOCC3)n2)c1 (stereo not shown) [Example 485-1a] |
| < 100 nM | CNC[C@H](O)COc1cccc(-c2nc(-c3cnc4cnccn34)cc(N(C)C3CCOCC3)n2)c1 [Example 486-1a] |

More lines, now with the values behind:

| Structure (SMILES) | IC50 |
| --- | --- |
| CNCC(O)COc1cccc(-c2nc(N[C@@H]3CCOC3)c(C)c(-c3cncc(C#N)c3)n2)c1 (stereo partly shown) [Example 341-1a] | < 100 nM |
| CNCC(O)COc1cccc(-c2nc(N[C@@H]3CCOC3)c(C)c(-c3cncnc3)n2)c1 (stereo partly shown) [Example 350-1a] | < 100 nM |
| CNCC(O)COc1cccc(-c2nc(NC3CCOC3)c(C)c(N3CCN[C@@H](C)C3)n2)c1 (stereo partly shown) [Example 351-1a] | < 100 nM |
| CNCC(O)COc1cccc(-c2nc(NC3CCOC3)c(C)c(N3CCNC[C@H]3C)n2)c1 (stereo partly shown) [Example 352-1a] | < 100 nM |
| CNCC(O)COc1cccc(-c2nc(N[C@@H]3CCOC3)c(C)c(-c3cnc4[nH]ccc4c3)n2)c1 (stereo partly shown) [Example 355-1a] | < 100 nM |
| CNCC(O)COc1cccc(-c2nc(N[C@@H]3CCOC3)c(C)c(-c3cnc(OC)nc3)n2)c1 (stereo partly shown) [Example 356-1a] | < 100 nM |
| CNCC(O)COc1cccc(-c2nc(N[C@@H]3CCOC3)c(C)c(N3CCC[C@@H](O)C3)n2)c1 (stereo partly shown) [Example 358-1a] | < 100 nM |
| CNCC(O)COc1cccc(-c2nc(N[C@@H]3CCOC3)c(C)c(N3CCn4ccnc4C3)n2)c1 (stereo partly shown) [Example 359-1a] | < 100 nM |
| CNCC(O)COc1cccc(-c2nc(N[C@H]3CCOC3)c(C)c(N3CCC(O)CC3)n2)c1 (stereo partly shown) [Example 362-1a] | < 100 nM |
| CNCC(O)COc1cccc(-c2nc(N[C@H]3CCOC3)c(C)c(C(=O)N(C)CC3CCOCC3)n2)c1 (stereo partly shown) [Example 363-1a] | 100 to 1000 nM |
| CNCC(O)COc1cccc(-c2nc(NCCCCl)c(C)c(N[C@@H]3CCOC3)n2)c1 (stereo partly shown) [Example 366-1a] | < 100 nM |
| CNCC(O)COc1cccc(-c2nc(N[C@@H]3CCOC3)c(C)c(N3CCC(N4CCOCC4)CC3)n2)c1 (stereo partly shown) [Example 367-1a] | < 100 nM |
| CNCC(O)COc1cccc(-c2nc(N[C@@H]3CCOC3)c(C)c(N3CC[C@H](N(C)C)C3)n2)c1 (stereo partly shown) [Example 368-1a] | < 100 nM |
| CNCC(O)COc1cccc(-c2nc(N[C@@H]3CCOC3)c(C)c(N3CC[C@@H](OC)C3)n2)c1 (stereo partly shown) [Example 369-1a] | < 100 nM |
| CNCC(O)COc1cccc(-c2nc(N[C@@H]3CCOC3)c(C)c(N3CCC(OC)CC3)n2)c1 (stereo partly shown) [Example 370-1a] | < 100 nM |
| CNCC(O)COc1cccc(-c2nc(N[C@@H]3CCOC3)c(Cl)c(N3CCOCC3)n2)c1 (stereo partly shown) [Example 376-1a] | < 100 nM |
| CNCC(O)COc1cccc(-c2nc(N[C@@H]3CCOC3)c(C)c(N3CCC3)n2)c1 (stereo partly shown) [Example 377-1a] | < 100 nM |

| Structure (SMILES) | IC50 |
| --- | --- |
| CNCC(O)COc1cccc(-c2nc(N[C@@H]3CCOC3)c(C)c(N(C)C3CCN(C)CC3)n2)c1 (stereo partly shown) [Example 379-1a] | < 100 nM |
| CNCC(O)COc1cccc(-c2nc(N[C@H]3CCOC3)c(C)c(-n3nc(C)cc3C)n2)c1 (stereo partly shown) [Example 381-1a] | < 100 nM |
| CNCC(O)COc1cccc(-c2nc(N[C@@H]3CCOC3)c(C)c(-n3nc(C)cc3C)n2)c1 (stereo partly shown) [Example 382-1a] | < 100 nM |
| CNCC(O)COc1cccc(-c2nc(N[C@@H]3CCOC3)c(C)c(N3CCN(CC(=O)N(C)C)CC3)n2)c1 (stereo partly shown) [Example 391-1a] | < 100 nM |
| CNCC(O)COc1cccc(-c2nc(N[C@@H]3CCOC3)c(C)c(N3CC[C@@H](N(C)C)C3)n2)c1 (stereo partly shown) [Example 392-1a] | < 100 nM |
| CNCC(O)COc1cccc(-c2nc(N[C@@H]3CCOC3)c(C)c(N3Cc4cccnc4C3)n2)c1 (stereo partly shown) [Example 394-1a] | < 100 nM |
| CNCC(O)COc1cccc(-c2nc(N[C@@H]3CCOC3)c(C)c(N3CCN(C(C)=O)[C@@H](C)C3)n2)c1 (stereo partly shown) [Example 396-1a] | < 100 nM |
| CNCC(O)COc1cccc(-c2nc(NC3CCOC3)c(C)c(C(=O)NC3CCN(C)CC3)n2)c1 (stereo not shown) [Example 397-1a] | < 100 nM |
| CNCC(O)COc1cccc(-c2nc(NC3CCOC3)c(C)c(N3CC4(CCNCC4)c4ccccc43)n2)c1 (stereo not shown) [Example 398-1a] | < 100 nM |
| CNCC(O)COc1cccc(-c2nc(N[C@@H]3CCOC3)c(C)c(-c3ccc(OC)nc3)n2)c1 (stereo partly shown) [Example 408-1a] | < 100 nM |
| CNCC(O)COc1cccc(-c2nc(N[C@@H]3CCOC3)c(C)c(N3CC4CCC(C3)O4)n2)c1 (stereo partly shown) [Example 412-1a] | < 100 nM |
| CNCC(O)COc1cccc(-c2nc(N[C@@H]3CCOC3)c(C)c(C3=CC(C)(C)NC(C)(C)C3)n2)c1 (stereo partly shown) [Example 415-1a] | < 100 nM |
| CNCC(O)COc1cccc(-c2nc(NC3CCOC3)c(C)c(N3CCN(C(C)=O)C[C@H]3C)n2)c1 (stereo partly shown) [Example 421-1a] | < 100 nM |
| CNCC(O)COc1cccc(-c2nc(N[C@@H]3CCOC3)c(C)c(N3CCNCC3)n2)c1 (stereo partly shown) [Example 422-1a] | < 100 nM |
| CNCC(O)COc1cccc(-c2nc(N[C@@H]3CCOC3)c(C)c(N3CCC4(CC3)CNC(=O)C4)n2)c1 (stereo partly shown) [Example 424-1a] | < 100 nM |
| CNCC(O)COc1cccc(-c2nc(N[C@@H]3CCOC3)c(C)c(N3CCS(=O)(=O)CC3)n2)c1 (stereo partly shown) [Example 425-1a] | < 100 nM |
| CNCC(O)COc1cccc(-c2nc(NC3CCOC3)c(C)c(N3CC4CC(C3)N4)n2)c1 (stereo not shown) [Example 452-1a] | < 100 nM |
